# Experimental data from patent publication US12076313B2 (CELISTA PHARMACEUTICALS LLC, priority 2020, dated 2024).
# Assay: Rat topical application study: effectiveness at low dose and topical absorption
# Format: in vivo
# Conditions: rats, topical, 20 μg/100 μL
# Description: A study was performed in rats with formulations A and B, and a control formulation. Formulation A was IMQ+penetration enhancer (P.E.) at 20 μg/100 μL. […] The Control formulation was IMQ at 20 μg/100 μL in ethanol.
compound,measurement,value
"CC(C)Cn1cnc2c(N)nc3ccccc3c21 [Imiquimod, 1-(2-methylpropyl)-1H-imidazo[4,5-c]quinolin-4-amine]",effectiveness at a low dose,effective
